Data reported in US7589123B2, “Chemical compounds” (Phytopharm PLC, priority 2006, dated 2009).

Legend:
[1] = test system: IL-1α-induced PGE2 release; experiment: IL-1α-induced PGE2 release in human diploid lung fibroblasts (WI-38) (Assay 5); assay type: cell-based; details: Homo sapiens, WI-38 cells, IL-1α 1 nM, overnight
Procedure: (§1) Human diploid lung fibroblasts (WI-38 cells) were incubated overnight in the presence of IL-1α (1 nM) and test compound (3 and 30 μM) in modified Eagle medium at pH 7.3 containing foetal bovine serum (10%) at 37° C. The supernatant was assayed by radioimmunoassay for released PGE2 and the inhibition of PGE2 by test compound calculated (Table 10). The viability of the cells was then assessed by washing with Roswell Park Memorial Institute medium and adding Alamar Blue reagent before being incubated at 37° C. for 4 h. Living cells take up Alamar Blue and emit fluorescence when excited. Fluorescence intensity was measured using a SpectroFluor Plus plate reader with excitation at 530 nm and emission at 590 nm (Table 10).

[2] = test system: α-smooth muscle actin (α-SMA) mRNA; experiment: Anti-remodelling activity in human lung fibroblasts (HFL1): TGFβ-induced α-SMA mRNA (Assay 4); assay type: cell-based; details: Homo sapiens, HFL1 cells, TGFβ 10 ng/ml, 24 h, read-out: Inhibition of α-SMA mRNA synthesis (%)
Procedure: A human foetal lung fibroblast cell line (HFL1 cells; ATCC accession number CCl-153) was used in this assay. The cells were cultured in medium containing a low level of foetal bovine serum (FBS; 0.1%) for 24 h. After 24 h of culturing the medium was changed to: (a) Control medium (medium containing 10% FBS, 1% phosphate saline and 0.5 mM L-glutamine), (b) Control medium and transforming growth factor beta (TGFβ; 10 ng/ml), (c) Control medium and TGFβ and test compounds (3 and 30 μM). The medium was collected after 24 h and the total mRNA extracted in Tri-reagent. The level of mRNA coding for α-smooth muscle actin (α-SMA) was assessed by real-time reverse transcription-polymerase chain reaction (rtRT-PCR) using primer couples that allow the amplification of α-SMA mRNA. Liver glyceraldehydes 3-phosphate dehydrogenase (GADPH) was used as a reference marker in this experiment. The inhibition of the TGTβ-induced overexpression of α-SMA mRNA by the test compounds was quantified.

[3] = target: TRPV1 receptor (Rattus norvegicus, UniProt O35433); experiment: TRPV1 modulation in DRG neurones: CGRP release in absence and presence of capsaicin (Assay 2); assay type: cell-based; set-up: The culture used for this experiment contained sensory neurones, Schwann cells and fibroblasts; endogenous in cells; host or cells: primary rat DRG sensory neurone culture (with Schwann cells and fibroblasts); details: 20 min; for inhibition at 3 µM: 3 μM with capsaicin 1 μM; for inhibition at 3 µM / inhibition at 30 µM: −ve: inhibition, +ve: potentiation of capsaicin response, read-out: Effect of test compounds on capsaicin (1 μM)-induced CGRP release (%); for inhibition at 30 µM: 30 μM with capsaicin 1 μM; for Emax at 3 µM: test compound alone 3 μM; for Emax at 3 µM / Emax at 30 µM: rat DRG sensory neurones, read-out: CGRP release (% of capsaicin (1 μM) response); for Emax at 30 µM: test compound alone 30 μM
Sequence of TRPV1 receptor (O35433 whole entry): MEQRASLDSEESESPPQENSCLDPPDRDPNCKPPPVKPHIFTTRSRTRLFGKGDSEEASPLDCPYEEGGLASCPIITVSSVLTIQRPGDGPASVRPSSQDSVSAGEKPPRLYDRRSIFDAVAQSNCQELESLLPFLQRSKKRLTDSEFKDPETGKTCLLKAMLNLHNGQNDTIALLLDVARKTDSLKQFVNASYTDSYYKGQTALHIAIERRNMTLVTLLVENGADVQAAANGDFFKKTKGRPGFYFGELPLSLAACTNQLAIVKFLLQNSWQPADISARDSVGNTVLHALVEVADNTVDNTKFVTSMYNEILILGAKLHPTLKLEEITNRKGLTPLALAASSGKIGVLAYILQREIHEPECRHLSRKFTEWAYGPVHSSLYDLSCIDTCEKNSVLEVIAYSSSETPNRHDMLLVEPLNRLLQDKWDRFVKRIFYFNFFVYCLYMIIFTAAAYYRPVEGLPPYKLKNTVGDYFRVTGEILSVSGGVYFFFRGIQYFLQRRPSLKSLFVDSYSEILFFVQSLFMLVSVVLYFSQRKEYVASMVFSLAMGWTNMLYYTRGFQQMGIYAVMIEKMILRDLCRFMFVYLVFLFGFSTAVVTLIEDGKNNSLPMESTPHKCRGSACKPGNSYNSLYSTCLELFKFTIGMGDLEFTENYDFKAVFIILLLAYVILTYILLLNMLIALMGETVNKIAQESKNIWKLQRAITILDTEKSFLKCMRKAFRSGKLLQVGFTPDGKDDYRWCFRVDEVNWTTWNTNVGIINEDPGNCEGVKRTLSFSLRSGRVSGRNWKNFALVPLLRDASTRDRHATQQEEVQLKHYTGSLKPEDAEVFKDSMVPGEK

[4] = test system: histamine-induced contractions in guinea pig ileum; experiment: Inhibition of histamine-induced contractions in guinea pig ileum (Assay 3); details: Cavia porcellus, histamine 1.7 μM, read-out: Inhibition of histamine-induced contraction (%)
Procedure: (§2) Duncan Hartley derived male guinea pigs (325±25 g) were suppressed by CO2 overexposure, the abdominal cavity was exposed and ileal segments were removed. Small strips of ileum were suspended in organ baths containing Krebs solution (composition in g/l: NaCl 6.89, KCl 0.35, CaCl2 0.277, KH2PO4 0.163, MgSO4.7H2O 0.296, NaHCO3 2.1 glucose 1.8). The solution was kept at 32° C. and gassed with O2 (95%)-CO2 (5%) to maintain pH at 7.4. Mechanical activity was recorded by means of isotonic transducers. A resting tension of 1 g was applied to muscle strips before being equilibrated for 1 h, prior to test compound addition. Each preparation was washed twice at 15 min intervals during the equilibration.
(§3) Histamine (1.7 μM; approximately EC60-70) or 5-hydroxytryptamine (5-HT, 2.6 μM; approximately EC60-70) was applied for 5 min and the amplitude of the contraction recorded. The histamine or 5-HT was then washed out until the ileal tissue returned to baseline. Five min after returning to baseline test compound (3 and 30 μM) was applied and the amplitude of the contraction (if any) was recorded. In the continuous presence of test compound, histamine or 5-HT was re-applied and the inhibition of the response was recorded.

[5] = test system: WI-38 cells; experiment: Viability of WI-38 cells, Alamar Blue (Assay 5); assay type: cell-based, human
Procedure: as §1

[6] = test system: 5-HT-induced contractions in guinea pig ileum; experiment: Inhibition of 5-HT-induced contractions in guinea pig ileum (Assay 3); details: Cavia porcellus, 5-HT 2.6 μM, read-out: Inhibition of 5-HT-induced contraction (%)
Procedure: as §2, §3

[7] = target: T1, 5-lipoxygenase (Homo sapiens, UniProt P09917); experiment: 5-lipoxygenase activity (LTB4) in human peripheral blood mononuclear leukocytes (Assay 6); assay type: cell-based; details: human PBMLs, A23187 30 μM, read-out: Inhibition of 5-LO (%)
T1 construct: endogenous in cells; host or cells: human peripheral blood mononuclear leukocytes (PBMLs)
T1 sequence (P09917 1-674): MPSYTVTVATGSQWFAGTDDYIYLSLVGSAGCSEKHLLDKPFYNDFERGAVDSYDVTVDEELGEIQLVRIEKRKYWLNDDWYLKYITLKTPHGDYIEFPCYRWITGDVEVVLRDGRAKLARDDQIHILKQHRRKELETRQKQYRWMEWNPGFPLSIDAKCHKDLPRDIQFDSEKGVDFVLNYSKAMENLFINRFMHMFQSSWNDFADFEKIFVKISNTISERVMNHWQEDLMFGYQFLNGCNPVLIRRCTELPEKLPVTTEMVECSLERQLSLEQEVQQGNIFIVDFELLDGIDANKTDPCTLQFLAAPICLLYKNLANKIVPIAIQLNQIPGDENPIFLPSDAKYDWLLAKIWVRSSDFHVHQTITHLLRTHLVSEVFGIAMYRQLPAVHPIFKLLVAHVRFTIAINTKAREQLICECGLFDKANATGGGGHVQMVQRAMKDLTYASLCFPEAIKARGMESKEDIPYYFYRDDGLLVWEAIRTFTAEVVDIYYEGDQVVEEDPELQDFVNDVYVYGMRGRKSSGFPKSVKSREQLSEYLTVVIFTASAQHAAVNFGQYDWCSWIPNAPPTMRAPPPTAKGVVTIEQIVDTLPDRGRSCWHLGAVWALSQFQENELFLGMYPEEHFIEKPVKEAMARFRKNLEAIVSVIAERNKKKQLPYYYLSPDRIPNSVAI
Procedure: Human peripheral blood mononuclear leukocytes (PBMLs) were isolated using a Ficoll-Paque density gradient. Human peripheral blood mononuclear leukocytes (5×10^6 cells) were incubated with A23187 (30 μM), a divalent cation ionophore used to initiate the biosynthesis of […], and with vehicle (0.1% DMSO) or test compound (3 and 30 μM) in Hank's balanced salt solution (HBBS) buffer, pH 7.4 at 37° C. for 15 min. The PBML solution was neutralized with NaOH (1 N) and centrifuged at 1000 g for 10 min and the supernatant collected. The concentration of leukotriene B4 (LTB4) in the supernatant was measured using an enzyme immunoassay kit (Assay Design Inc.). A reduction in the concentration of LTB4 indicated an inhibition of the enzyme 5-lipoxygenase (Table 11).

| Compound | inhibition at 3 µM [3] [%] | inhibition at 30 µM [3] [%] | Emax at 3 µM [3] [%] | Emax at 30 µM [3] [%] | inhibition at 3 µM [7] [%] | inhibition at 30 µM [7] [%] | inhibition at 3 µM [1] [%] | inhibition at 30 µM [1] [%] | inhibition at 3 µM [2] [%] | inhibition at 30 µM [2] [%] | inhibition at 3 µM [4] [%] | inhibition at 30 µM [4] [%] | Decrease in cell viability (%) ([5]; 3 μM) | Decrease in cell viability (%) ([5]; 30 μM) | inhibition at 3 µM [6] [%] | inhibition at 30 µM [6] [%] |
| --- | --- | --- | --- | --- | --- | --- | --- | --- | --- | --- | --- | --- | --- | --- | --- | --- |
| COc1cc(CCC(=O)C(C)C(=O)c2ccc(C)cc2)ccc1O (stereo not drawn) [Compound 14, 5-(4-Hydroxy-3-methoxylphenyl)-2-methyl-1-p-tolyl-pentane-1,3-dione] | -12 | 35 | 120 | 94 | 57 | 96 | 77 | 101 | 11 | 17 | 10 | 54 | 5 | −4 | 10 | 74 |
| COc1cc(CCC(=O)CC(=O)c2ccc(C)cc2)ccc1O [Compound 80, 5-(4-Hydroxy-3-methoxyphenyl)-1-p-tolylpentane-1,3-dione] | 44 | -24 | 68 | 118 | 61 | 97 | 72 | 102 | 4 | 29 | 2 | 62 | 2 | 1 | 14 | 68 |
| COc1cc(CCC(=O)CC(=O)c2ccccc2-c2ccccc2)ccc1O [Compound 19, 1-(Biphenyl-2-yl)-5-(4-hydroxy-3-methoxyphenyl)-pentane-1,3-dione] | -29 | -159 | 139 | 286 | 48 | 99 | 73 | 100 | 57 | 97 | 8 | 81 | −1 | 57 | 13 | 39 |
| COc1cc(CCC(=O)C(C)(C)C(=O)C(C)(C)C)ccc1O [Compound 71, 1-(4-Hydroxy-3-methoxyphenyl)-4,4,6,6-tetramethylheptane-3,5-dione] | 26 | 29 | 48 | 38 | 6 | 48 | 41 | 95 | -1 | 20 | 0 | 35 | −1 | 11 | 3 | 53 |

Continued, in another order:

| inhibition at 3 µM [3] [%] | inhibition at 30 µM [3] [%] | Emax at 3 µM [3] [%] | Emax at 30 µM [3] [%] | inhibition at 3 µM [7] [%] | inhibition at 30 µM [7] [%] | Compound | inhibition at 3 µM [1] [%] | inhibition at 30 µM [1] [%] | inhibition at 3 µM [2] [%] | inhibition at 30 µM [2] [%] | inhibition at 3 µM [4] [%] | inhibition at 30 µM [4] [%] | Decrease in cell viability (%) ([5]; 3 μM) | Decrease in cell viability (%) ([5]; 30 μM) | inhibition at 3 µM [6] [%] | inhibition at 30 µM [6] [%] |
| --- | --- | --- | --- | --- | --- | --- | --- | --- | --- | --- | --- | --- | --- | --- | --- | --- |
| 17 | -77 | 56 | 109 | 32 | 95 | COc1cc(CCC(=O)CC(=O)C(C)(C)c2ccccc2)ccc1O [Compound 31, 6-(4-Hydroxy-3-methoxyphenyl)-1,1-dimethyl-1-phenyl-hexane-2,4-dione] | 83 | 101 | 34 | 80 | 12 | 68 | 5 | −7 | 10 | 96 |
| 46 | -66 | 85 | 162 | 92 | 98 | COc1cc(CCC(=O)CC(=O)c2cccc3ccccc23)ccc1O [Compound 27, 5-(4-Hydroxy-3-methoxylphenyl)-1-(naphthalene-1-yl)-pentane-1,3-dione] | 92 | 99 | 6 | 79 | 2 | 68 | 4 | 40 | 1 | 63 |
